Measured values taken from ChEMBL document CHEMBL2094269, “WEHI/Eskitis Trypanosoma b. brucei screening data”.

Experiments:
[1] = DNDI: Cytotoxicity against human MRC-5 lung fibroblast cells.; conditions: IC50
[2] = tested on: Trypanosoma brucei brucei; test: microbe, parasite or virus in culture; format: functional, organism-based, STIB 795
Description: DNDI: Inhibition of Human African Trypanosomiasis (HAT), STIB 795, in vitro

| SMILES | IC50 [1] [µM] | IC50 ([2]; Trypanosoma brucei, STIB 795) [µM] | IC50 [2] [µM] |
| --- | --- | --- | --- |
| CCOC(=O)/C=C\n1nnc2ccccc21 | > 41.7 | 0.503 |  |
| O=C1c2cccc3cccc(c23)C(=O)N1CCNCCO | > 4.17 | 4.5 |  |
| COc1ccc(C(=O)CSC2=C(C#N)C3(CCCCC3)C(C#N)=C(N)N2)cc1 |  | > 10.4 |  |
| CCN(CC)c1cc(C)c2cc(NC(=O)/C=C/c3ccccc3Cl)ccc2n1 |  | > 10.4 |  |
| CCCC(=O)NC(c1ccc2c(c1)OCO2)c1cc(Cl)c2cccnc2c1O (centres undefined) |  | > 10.4 |  |
| NCCc1c[nH]c2ccc(C3CCCCC3)cc12 | > 20.8 | 1.28 |  |
| Cc1ccc(CN2C(=O)CCC2C(=O)N2CCN(c3ccc(F)cc3)CC2)cc1 (centres undefined) |  | > 10.4 |  |
| COc1ccc(OC)c(/C=C/C(=O)Nc2ccc(C(=O)OCCC(C)C)cc2)c1 |  | > 10.4 |  |
| N#CC1=C(N)OC2=C(CC/C2=C\c2ccccc2Cl)C1c1ccccc1Cl (centres undefined) |  | > 10.4 |  |
| CN(C)c1ccc(/C=C/c2sc3ccc4ccccc4c3[n+]2C)cc1 | > 2.08 | < 0.004 |  |
| CC12C(=O)N(c3ccc(Cl)cc3O)C(=O)C1C1c3ccccc3C2c2ccccc21 (centres undefined) |  | > 10.4 |  |
| Cc1ccccc1-n1sc2ccccc2c1=O | > 20.8 | 1.99 |  |
| Cc1ccc(O)c(/N=N/c2nnc[nH]2)c1 | > 10.4 | 0.404 |  |
| O=C(Nc1ccc(Cl)c(-c2nc3ncccc3o2)c1)c1ccco1 | > 41.7 | 0.17 |  |
| CC1CCc2nc(SC3CC(=O)C4OCC3O4)nc(C(F)(F)F)c2C1 (centres undefined) | > 20.8 | 2.62 |  |
| C/C(=C\c1ccccc1)c1nc2c(=O)n(C)c(=O)nc-2n(C)n1 | > 20.8 | 5.62 |  |
| CN(C)CCOc1ccccc1C1NCCc2c1[nH]c1ccccc21 (centres undefined) | > 20.8 | 1.28 |  |
| Cc1c(C)c(C)c2c(CC(C)N)c[nH]c2c1C (centres undefined) | > 41.7 | 4.24 |  |
| Cc1cccc2ccc(/C=C/c3ccc(N(C)C)cc3)[n+](C)c12 | > 4.17 | < 0.004 |  |
| Oc1c(C(c2ccc(C(F)(F)F)cc2)N2CCOCC2)ccc2cccnc12 (centres undefined) | > 20.8 | 5.43 |  |
| CC(=O)NC(=S)NNC(=O)c1ccccc1OCc1ccccc1 | > 20.8 | 2.88 |  |
| COc1ccc(N2C(=O)CN(Cc3ccccc3)C2=S)cc1Cl | > 41.7 | 5.49 |  |
| COc1ccc(C(=O)C(C)N2C=CC=C/C2=C2\C=CC=CN2)cc1 (centres undefined) | > 41.7 | 4.25 |  |
| CC[n+]1c(/C=C2\SC=C(c3ccccc3)N2C)ccc2cc(C)ccc21 | > 10.4 | 0.416 |  |
| O=C(CC1(O)C(=O)Nc2ccc(I)cc21)c1cccs1 (centres undefined) | > 41.7 | 0.931 |  |

| SMILES | IC50 [1] [µM] | IC50 ([2]; Trypanosoma brucei, STIB 795) [µM] | IC50 [2] [µM] |
| --- | --- | --- | --- |
| COc1ccc(-c2nc(Nc3ccc(F)cc3F)c3ccccc3n2)cc1OC | > 41.7 | 7.04 |  |
| N=C(N)N/N=C1/C(=O)Nc2ccc(Br)cc21 | > 41.7 |  |  |
| O=C(Nc1ccccc1C(=O)N/N=C/c1ccc(O)cc1O)c1ccc(F)cc1 |  | > 10.4 |  |
| Oc1c(C(Nc2ccccn2)c2ccc(OC(F)F)cc2)ccc2cccnc12 (centres undefined) |  | > 10.4 |  |
| CC(=O)NC1=C(N2CCN(c3ccc(F)cc3)CC2)C(=O)c2ccccc2C1=O |  | > 10.4 |  |
| O=C(NCC1CCCO1)c1cccc(Oc2cc(-c3ccc(F)cc3)ncn2)c1 (centres undefined) |  | > 10.4 |  |
| Cc1nnc(Sc2nc(Nc3ccccc3)nc(Nc3ccccc3)n2)s1 |  | > 10.4 |  |
| Cc1nc(=S)sn1-c1nc(Nc2ccccc2)nc(Nc2ccccc2)n1 |  | > 10.4 |  |
| CCn1cc(CN2CCC(C(=O)NCc3ccc(F)cc3)CC2)c2ccccc21 |  | > 10.4 |  |
| O=C(Nc1ccccc1C(=O)N/N=C/c1ccccc1O)c1ccccc1Cl |  | > 10.4 |  |
| Cc1ccnc(NC(c2ccc3cccnc3c2O)c2c(F)cccc2Cl)c1 (centres undefined) |  | > 10.4 |  |
| Cc1cc(N2CCC(C)CC2)nc2ccc(NC(=O)c3cccc(Cl)c3)cc12 |  | > 10.4 |  |
| CC(C)(C)c1ccc(C(OC(CN)c2ccccc2)c2ccc(Cl)cc2)cc1 (centres undefined) |  | > 10.4 |  |
| Cc1nc2ccc3nc(NC(=O)c4ccc(Cl)cc4Cl)sc3c2s1 |  | > 10.4 |  |
| CCOC(=O)c1ccc(NC(=O)CN(c2cccc(F)c2)S(C)(=O)=O)cc1 |  | > 10.4 |  |
| O=C1C(Nc2ccccc2)=C/C(=N/S(=O)(=O)c2cccs2)c2ccccc21 |  | > 10.4 |  |
| [H]/N=C(/N)SCc1nc2n(Cc3ccccc3)c3ccccc3n2c1C(=O)OC |  | > 10.4 |  |
| COc1ccc(CNC2=C(C(=S)Nc3ccccc3)C(=O)CC(C)(C)C2)cc1 |  | > 10.4 |  |
| Oc1ccc(-c2nnc(SCCN3CCCCC3)n2Cc2ccccc2)cc1 |  | > 10.4 |  |
| COc1ccc(CN2CCN(C3CCC(c4ccccc4)CC3)CC2)c(OC)c1 (centres undefined) |  | > 10.4 |  |
| CC1=NN(c2ccccc2)C(=O)/C1=C/c1ccc(Sc2ccc(Cl)cc2)o1 |  | > 10.4 |  |
| Clc1ccc2nc(CCc3ccccc3)nc(NCCN3CCCCC3)c2c1 |  | > 10.4 |  |
| O=C(O)c1ccccc1N/N=C(/c1ccccc1)c1ccc(Br)cc1 |  | > 10.4 |  |
| COc1cccc(C2=CC(c3cc(OC)c(OC)c(OC)c3)n3nnnc3N2)c1 (centres undefined) |  | > 10.4 |  |
| Cc1cc(N2CCC(C)CC2)nc2ccc(NC(=O)c3c(F)cccc3F)cc12 |  | > 10.4 |  |

| SMILES | IC50 [1] [µM] | IC50 ([2]; Trypanosoma brucei, STIB 795) [µM] | IC50 [2] [µM] |
| --- | --- | --- | --- |
| CCN(CC)c1cc(C)c2cc(NC(=O)C3CCC(C(C)(C)C)CC3)ccc2n1 (centres undefined) |  | > 10.4 |  |
| O=C(CCC(=O)Nc1cccc(Cl)c1)N/N=C/c1c(O)ccc2ccccc12 |  | > 10.4 |  |
| COc1cccc(/C=N/NC(=O)c2ccccc2I)c1O |  | > 10.4 |  |
| CCN(CC)CCOC(COC)(c1ccc(Cl)cc1)c1ccc(Cl)cc1 |  | > 10.4 |  |
| Cc1ccc(S(=O)(=O)/N=C2\C=C(N3CCOCC3)C(=O)c3ccccc32)cc1 |  | > 10.4 |  |
| CC(C)CCOc1ccc(/C=N/NC(=O)C23CC4CC(C)(CC(C)(C4)C2)C3)cc1 |  | > 10.4 |  |
| CCN(CC)CC(O)CN(/N=C/c1ccc(N(CC)CC)cc1)c1ccccc1 (centres undefined) |  | > 10.4 |  |
| CCOC(=O)COc1ccc(/C=C\c2cc(C(F)(F)F)nc(=O)[nH]2)cc1OC |  | > 10.4 |  |
| Cc1ccc(O)c(/C=N/NC(=O)C2=NNC(c3ccccc3)(c3ccccc3)C2)c1 |  | > 10.4 |  |
| COc1cc(C(CC(=O)c2ccco2)Sc2ccccc2)cc(OC)c1OC (centres undefined) |  | > 10.4 |  |
| COc1ccc(C(=O)NN=C2C=C(C(C)(C)C)C(=O)C(C(C)(C)C)=C2)cc1OC |  | > 10.4 |  |
| CCOC(=O)C1=C(C)NC(SCC(=O)c2ccccc2)=C(C#N)C1CC(C)C (centres undefined) |  | > 10.4 |  |
| Cc1ccc(NC(=O)CN(C)C(=O)c2ccc3c(c2)nnn3C(C)C)c(Cl)c1 |  | > 10.4 |  |
| O=S1(=O)Nc2c(ccc3cccnc23)-c2ccccc21 | > 20.8 | 2.87 |  |
| c1ccc(Nc2nc(-c3ccccn3)cs2)nc1 | > 10.4 | 0.718 |  |
| OCCNC1CCCc2c1[nH]c1ccc(Br)cc21 (centres undefined) | > 20.8 | 2.45 | 1.83 |
| CCN1C(=Cc2sc3ccc(Cl)cc3[n+]2CC)C=Cc2cc(OC)ccc21 | > 4.17 | 0.706 |  |
| CC(C)CC[n+]1ccccc1C=Cc1ccc(N(C)C)cc1 | > 10.4 | 0.734 |  |
| N=c1c2c(n(Cc3ccc(Cl)cc3Cl)c3c1CCC3)CCCC2 | > 41.7 | 0.842 |  |
| CCC(C)(C)c1ccc(OCC(O)CNCc2ccccc2)c(C(C)(C)CC)c1 (centres undefined) |  | > 10.4 |  |
| COC(=O)C1=C(OC)C(=O)OC12C=CC(=O)C=C2 | 1.06 | 0.524 |  |
| CN1/C(=C/c2cccc[n+]2C)Sc2ccccc21 | > 20.8 | 0.477 |  |
| CC[n+]1c(/C=C2\Sc3cc(NC(C)=O)ccc3N2C)ccc2ccccc21 | > 41.7 | 5.41 |  |
| Cc1ccc(-c2cn3c([n+]2-c2ccc(C)cc2)CCCCC3)cc1 | > 20.8 | 6.4 |  |
